Measurements from patent US7026339B2, “Inhibitors of HCV NS5B polymerase” (priority 2003, dated 2006).

System: HuH-7 replicon cells 5–15 and 9–13 (HCV replication)
Assay: Inhibition of viral replication in HuH-7 replicon cells (HCV RNA / GAPDH RNA by multiplex RT-PCR)
Assay type: cell-based
Settings: Hepatitis C virus, 72 h; inhibiting 50% of replication; HuH-7 replicon cells, 3 days; read-out: IC50
Summary of the method: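 Replicon cells seeded at 7×10^3 cells/well, grown 24 h, then exposed 3 days at 37 °C to compound at final 100 μM–1 μM (1% DMSO). Multiplex TaqMan RT-PCR on total RNA quantified HCV 5′-UTR and GAPDH RNA against a standard curve; HCV/GAPDH ratio reported as percent of untreated control.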

Structure (SMILES) | IC50
O=C(Cc1ccccc1)N/N=C/c1ccccc1OS(=O)(=O)c1ccc(F)cc1 [Compound 129, 2-{(E)-[2-(2-phenylacetyl)hydrazono]methyl}phenyl 4-fluorobenzenesulfonate] | 5 to 50 µM
Cc1ccc(C)c(S(=O)(=O)Oc2ccccc2/C=N/NC(=O)Cc2ccccc2)c1 [Compound 130, 2-{(E)-[2-(2-phenylacetyl)hydrazono]methyl}phenyl2,5-dimethylbenzenesulfonate] | > 50 µM
COc1ccc(S(=O)(=O)Oc2ccccc2/C=N/NC(=O)Cc2ccccc2)cc1 [Compound 131, 2-{(E)-[2-(2-phenylacetyl)hydrazono]methyl}phenyl 4-methoxybenzenesulfonate] | < 5 µM
O=C(Cc1ccccc1)N/N=C/c1ccccc1OS(=O)(=O)c1ccccc1Cl [Compound 132, 2-{(E)-[2-(2-phenylacetyl)hydrazono]methyl}phenyl 2-chlorobenzenesulfonate] | > 50 µM
O=C(Cc1ccccc1)N/N=C/c1ccccc1OS(=O)(=O)c1ccc(F)cc1F [Compound 133, 2-{(E)-[2-(2-phenylacetyl)hydrazono]methyl}phenyl2,4-difluorobenzenesulfonate] | > 50 µM
CCCc1ccc(S(=O)(=O)Oc2ccccc2/C=N/NC(=O)Cc2ccccc2)cc1 [Compound 134, 2-{(E)-[2-(2-phenylacetyl)hydrazono]methyl}phenyl 4-propylbenzenesulfonate] | < 5 µM
CC(C)c1ccc(S(=O)(=O)Oc2ccccc2/C=N/NC(=O)Cc2ccccc2)cc1 [Compound 135, 2-{(E)-[2-(2-phenylacetyl)hydrazono]methyl}phenyl 4-isopropylbenzenesulfonate] | < 5 µM
O=C(Cc1ccccc1)N/N=C/c1ccccc1OS(=O)(=O)c1cccc2ccccc12 [Compound 136, 2-{(E)-[2-(2-phenylacetyl)hydrazono]methyl}phenylnaphthalene-1-sulfonate] | > 50 µM
O=C(Cc1ccccc1)N/N=C/c1ccccc1OS(=O)(=O)c1ccc(F)cc1Cl [Compound 137, 2-{(E)-[2-(2-phenylacetyl)hydrazono]methyl}phenyl 2-chloro-4-fluorobenzenesulfonate] | 5 to 50 µM
COc1ccc(OC)c(S(=O)(=O)Oc2ccccc2/C=N/NC(=O)Cc2ccccc2)c1 [Compound 138, 2-{(E)-[2-(2-phenylacetyl)hydrazono]methyl}phenyl2,5-dimethoxybenzenesulfonate] | > 50 µM
O=C(Cc1ccccc1)N/N=C/c1ccccc1OS(=O)(=O)c1cc(Cl)ccc1Cl [Compound 139, 2-{(E)-[2-(2-phenylacetyl)hydrazono]methyl}phenyl2,5-dichlorobenzenesulfonate] | > 50 µM
O=C(Cc1ccccc1)N/N=C/c1ccccc1OS(=O)(=O)c1ccccc1Br [Compound 140, 2-{(E)-[2-(2-phenylacetyl)hydrazono]methyl}phenyl 2-bromobenzenesulfonate] | > 50 µM
O=C(Cc1ccccc1)N/N=C/c1ccccc1OS(=O)(=O)c1ccccc1OC(F)(F)F [Compound 141, 2-{(E)-[2-(2-phenylacetyl)hydrazono]methyl}phenyl 2-(trifluoromethoxy)benzenesulfonate] | > 50 µM
O=C(Cc1ccccc1)N/N=C/c1ccccc1OS(=O)(=O)c1ccc(OC(F)(F)F)cc1 [Compound 142, 2-{(E)-[2-(2-phenylacetyl)hydrazono]methyl}phenyl 4-(trifluoromethoxy)benzenesulfonate] | < 5 µM
COc1cccc(S(=O)(=O)Oc2ccccc2/C=N/NC(=O)Cc2ccccc2)c1 [Compound 143, 2-{(E)-[2-(2-phenylacetyl)hydrazono]methyl}phenyl 3-methoxybenzenesulfonate] | 5 to 50 µM
O=C(Cc1ccccc1)N/N=C/c1ccccc1OS(=O)(=O)c1ccc(-c2ccccc2)cc1 [Compound 144, 2-{(E)-[2-(2-phenylacetyl)hydrazono]methyl}phenyl1,1′-biphenyl-4-sulfonate] | > 50 µM
COc1cccc(CC(=O)N/N=C/c2ccccc2OS(=O)(=O)c2ccc(C)cc2)c1 [Compound 145, 2-((E)-{2-[2-(3-methoxyphenyl)acetyl]hydrazono}methyl)-phenyl 4-methylbenzenesulfonate] | < 5 µM
COc1cccc(CC(=O)N/N=C/c2ccccc2OS(=O)(=O)c2ccc(C(F)(F)F)cc2)c1 [Compound 146, 2-((E)-{2-[2-(3-methoxyphenyl)acetyl]hydrazono}methyl)-phenyl 4-(trifluoromethyl)benzenesulfonate] | < 5 µM
Cc1ccc(S(=O)(=O)Oc2ccccc2/C=N/NC(=O)Cc2cccc(Cl)c2)cc1 [Compound 147, 2-((E)-{2-[2-(3-chlorophenyl)acetyl]hydrazono}methyl)-phenyl 4-methylbenzenesulfonate] | < 5 µM
O=C(Cc1cccc(Cl)c1)N/N=C/c1ccccc1OS(=O)(=O)c1ccc(C(F)(F)F)cc1 [Compound 148, 2-((E)-{2-[2-(3-chlorophenyl)acetyl]hydrazono}methyl)-phenyl 4-(trifluoromethyl)benzenesulfonate] | < 5 µM

Structure (SMILES) | IC50
COc1ccc(CC(=O)N/N=C/c2ccccc2OS(=O)(=O)c2ccc(C)cc2)cc1OC [Compound 149, 2-((E)-{2-[2-(3,4-dimethoxyphenyl)acetyl]hydrazono}methyl)-phenyl 4-methylbenzenesulfonate] | < 5 µM
COc1ccc(CC(=O)N/N=C/c2ccccc2OS(=O)(=O)c2ccc(C(F)(F)F)cc2)cc1OC [Compound 150, 2-((E)-{2-[2-(3,4-dimethoxyphenyl)acetyl]hydrazono}methyl)-phenyl 4-(trifluoromethyl)benzenesulfonate] | < 5 µM
COc1ccc(S(=O)(=O)Oc2ccccc2/C=N/NC(=O)Cc2cccc(OC)c2)cc1 [Compound 151, 2-((E)-{2-[2-(3-methoxyphenyl)acetyl]hydrazono}methyl)-phenyl 4-methoxybenzenesulfonate] | < 5 µM
COc1cccc(CC(=O)N/N=C/c2ccccc2OS(=O)(=O)c2ccc(OC)c(OC)c2)c1 [Compound 152, 2-((E)-{2-[2-(3-methoxyphenyl)acetyl]hydrazono}methyl)-phenyl 3,4-dimethoxybenzenesulfonate] | < 5 µM
COc1cccc(CC(=O)N/N=C/c2ccccc2OS(=O)(=O)c2cc(OC)ccc2OC)c1 [Compound 153, 2-((E)-{2-[2-(3-methoxyphenyl)acetyl]hydrazono}methyl)-phenyl 2,5-dimethoxybenzenesulfonate] | < 5 µM
COc1cccc(CC(=O)N/N=C/c2ccccc2OS(=O)(=O)c2ccc(OC)cc2OC)c1 [Compound 154, 2-((E)-{2-[2-(3-methoxyphenyl)acetyl]hydrazono}methyl)-phenyl 2,4-dimethoxybenzenesulfonate] | < 5 µM
COc1cccc(CC(=O)N/N=C/c2cc(Cl)ccc2OS(=O)(=O)c2ccc(C)cc2)c1 [Compound 155, 4-chloro-2-((E)-{[(3-methoxyphenyl)acetyl]hydrazono}methyl)-phenyl 4-methylbenzenesulfonate] | < 5 µM
COc1cccc(CC(=O)N/N=C/c2cc(OC)ccc2OS(=O)(=O)c2ccc(C)cc2)c1 [Compound 156, 4-methoxy-2-((E)-{[(3-methoxyphenyl)acetyl]hydrazono}methyl)-phenyl 4-methylbenzenesulfonate] | < 5 µM
COc1cccc(CC(=O)N/N=C/c2cc(C)ccc2OS(=O)(=O)c2ccc(C)cc2)c1 [Compound 157, 2-((E)-{[(3-methoxyphenyl)acetyl]hydrazono}methyl)-4-methylphenyl 4-methylbenzenesulfonate] | < 5 µM
COc1cccc(CC(=O)N/N=C/c2cc(F)ccc2OS(=O)(=O)c2ccc(C)cc2)c1 [Compound 158, 4-fluoro-2-((E)-{[(3-methoxyphenyl)acetyl]hydrazono}methyl)-phenyl 4-methylbenzenesulfonate] | < 5 µM
COc1cccc(CC(=O)N/N=C/c2cccc(F)c2OS(=O)(=O)c2ccc(C)cc2)c1 [Compound 159] | 5 to 50 µM
COc1cccc(CC(=O)N/N=C/c2cccc(OC)c2OS(=O)(=O)c2ccc(C)cc2)c1 [Compound 160, 2-methoxy-6-((E)-{[(3-methoxyphenyl)acetyl]hydrazono}methyl)-phenyl 4-methylbenzenesulfonate] | 5 to 50 µM
CCOc1cccc(/C=N/NC(=O)Cc2cccc(OC)c2)c1OS(=O)(=O)c1ccc(C)cc1 [Compound 161, 2-ethoxy-6-((E)-{[(3-methoxyphenyl)acetyl]hydrazono}methyl)-phenyl 4-methylbenzenesulfonate] | 5 to 50 µM
COc1cccc(CC(=O)N/N=C/c2c(OS(=O)(=O)c3ccc(C)cc3)ccc3ccccc23)c1 [Compound 162, 1-((E)-{2-[2-(3-methoxyphenyl)acetyl]hydrazono}methyl)-2-naphthyl 4-methylbenzenesulfonate] | 5 to 50 µM
COc1cccc(CC(=O)N/N=C/c2cccc(C)c2OS(=O)(=O)c2ccc(C)cc2)c1 [Compound 163, 2-((E)-{[(3-methoxyphenyl)acetyl]hydrazono}methyl)-6-methylphenyl 4-methylbenzenesulfonate] | < 5 µM
Cc1ccc(S(=O)(=O)Oc2ccc(F)cc2/C=N/NC(=O)Cc2cccc(Cl)c2)cc1 [Compound 164, 2-((E)-{[(3-chlorophenyl)acetyl]-hydrazono}methyl)-4-fluorophenyl 4-methylbenzenesulfonate] | < 5 µM
COc1cccc(CC(=O)N/N=C/c2cccc(OC)c2OS(=O)(=O)c2ccc(C(F)(F)F)cc2)c1 [Compound 165, 2-methoxy-6-((E)-{[(3-methoxyphenyl)acetyl]hydrazono}methyl)-phenyl 4-(trifluoromethyl)-benzenesulfonate] | < 5 µM
COc1cccc(CC(=O)N/N=C/c2cc(Br)ccc2OS(=O)(=O)c2ccc(C(F)(F)F)cc2)c1 [Compound 166] | < 5 µM
COc1cccc(CC(=O)N/N=C/c2cccc(C)c2OS(=O)(=O)c2ccc(C(F)(F)F)cc2)c1 [Compound 168, 2-((E)-{[(3-methoxyphenyl)acetyl]hydrazono}methyl)-6-methylphenyl 4-(trifluoromethyl)benzenesulfonate] | < 5 µM
